# Reference: US20050130902A1, “Peptide compounds for counteracting reactive oxygen species and free radicals” (priority 2001, published 2005)
# Where “and” joins values, the source holds several entries; their conditions need not be identical. Equal entries are not always repeated. No end group written: not given here.
# Columns and labels:
# [1] = Survival (longevity) of old C57 Black mice over 70-day treatment; format: in vivo; conditions: old 16-month mice
# From the text: This study was designed to examine the in vivo effect of daily administration of a representative peptide compound, PEP-1, to reverse age-related declines in spontaneous behavioral arousal as measured by effect on locomotor activity and longevity of “old” adult individuals. In this study, C57 Black mice were divided into the following treatment groups (n=10 per group): • Group 1: Young, 4-month old mice, untreated • Group 2: Old, 16-month old mice, untreated • Group 3: Old, 16-month old mice treated daily by oral gavage with 0.025 mg/kg of PEP-1
# Group 4: Old, 16-month old mice treated daily by oral gavage with 0.075 mg/kg of PEP-1 • Group 5: Old, 16-month old mice treated daily by oral gavage with 0.25 mg/kg of PEP-1 • Group 6: Old, 16-month old mice treated daily by oral gavage with 0.75 mg/kg of PEP-1 • Group 7: Old, 16-month old mice treated daily by oral gavage with 2.5 mg/kg of PEP-1
# At the end of a 70-day treatment period, all of the young, untreated mice (Group 1) were alive (i.e., to an age of 6.5 months), but 3 of the 10 untreated old mice (Group 2) had died. Also, 2 animals in each of Groups 3 and 4 died during this same period.
# SOD [2] = test: In vivo SOD upregulation in rat brain and heart after iv injection (Western immunoblot); set-up: species or system Sprague-Dawley rats; conditions: 1.2 mg/kg iv, 6 hours post injection
# Protocol: (§1) In vivo experiments were carried out in Sprague-Dawley rats (300-325 g) with solutions of peptide compounds PEP-1 and PEP-3. The animals were injected intravenously (iv) via the tail vein with a peptide compound. Each animal received one injection of peptide compound in normal saline at total dose equivalent of 1.2 or 2.4 mg peptide compound/kg body weight. The animals were sacrificed by decapitation at 6 hours post injection and dissected to isolate brain and heart organs, which were frozen at −70° C. for subsequent analysis by Western immunoblots.
# (§2) Each tissue was thawed and homogenized in a Down's homogenizer using ten volumes of homogenizer buffer (see, Adams et al., […], 77: 221-233 (2000); buffer as described in Adams et al., J. Leukoc. Biol., 62: 865-875 […]) to obtain a crude cytoplasmic fraction. The tissue homogenates were centrifuged (14,000×g for 5 minutes at 4° C.) to yield the supernatant purified cytoplasmic protein fractions for Western immunoblot analysis as described in Adams et al. (J. Cell. Biochem., 77: 221-233 (2000)). A 10 μg sample of each protein fraction was then separated by SDS polyacrylamide gel electrophoresis (SDS-PAGE) and analyzed for SOD and CAT content by Western blot assay as above.
# (§3) Controls for measurement of unstimulated levels of SOD were obtained from two vehicle-only (i.e., no peptide compound), injected rats that were sacrificed at 6 hours post injection. Both had essentially the same unstimulated level of SOD. Standard quantities of each cytoplasmic fraction (10 μg) were loaded on a lane of a gel for electrophoretic separation and Western immunoblot analysis (Adams et al., J. Cell. Biochem., 77: 221-233 (2000)). The stained gels were photographed and scanned by laser densitometry to quantify intensities in comparison to enzyme levels for control vehicle treated rats.
# CAT = test: In vivo CAT upregulation in rat brain and heart after iv injection (Western immunoblot); set-up: species or system Sprague-Dawley rats; conditions: 1.2 mg/kg iv, 6 hours post injection
# Protocol: as §1, §2, §3
# SOD [3] = test: SOD level in brain of old C57 Black mice, 14 days oral gavage on various schedules; format: in vivo; conditions: 18-month old mice
# Protocol: Adult 18-month old C57 Black mice (“old mice”) were treated with 0.25 mg/kg of PEP-1 by oral gavage for a period of 14 days. The animals belonged to the following 5 treatment groups (n=3 per group): • Group 1: Control, untreated • Group 2: Treatment once per week • Group 3: Treatment twice per week • Group 4: Treatment every other day • Group 5: Daily treatment
# At the end of 14 days, all animals were sacrificed and their brains were harvested and the SOD level was analyzed by Western immunoblot as described above. A SOD standard (“M”) was also run alongside the samples. The SOD levels were quantitated by densitometry measurements of the blot.
# [4] = Locomotor activity test (spontaneous behavioral arousal) in old C57 Black mice; format: in vivo
# Protocol: Six weeks after assignment of the doses, surviving animals were examined in a standard locomotor activity test used to detect evidence of a reversal of age-related declines in spontaneous behavioral arousal (Forster et al., 1996; Dubey et al., Arch. Biochem. Biophys., 333: 189-197 (1996)). Arousal levels were measured using a Digiscan apparatus (Omnitech, model RXYZCM, Omnitech Electronics, Columbus, Ohio, USA). Each mouse was placed in a clear acrylic chamber (40.5 cm×40.5 cm×30.5 cm) for a […] session. The acrylic chamber was placed in a metal frame lined with arrays of photocells. A wooden cabinet with sheets of insulation enclosed the acrylic chamber and the metal frame. Fans provided an 80-db ambient noise level within the chamber. Movements of the mouse within the horizontal plane interrupted the photobeams, which were automatically recorded by a computer within 1-minute time samples. The measure used in this study was the average horizontal photobeam interruptions per minute, over a 16-minute testing session (horizontal counts/min).
# The locomotor activity test was performed on blinded Groups 1, 2, 3, 4, 5, and 6, (young untreated control, old untreated control, old treated with PEP-1 at 0.025 mg/kg 0.075 mg/kg, 0.25 mg/kg, and 0.75 mg/kg, respectively) six weeks after assignment of the doses. A significant difference between the young and old untreated control groups was found (p<0.05), verifying previous findings of the age-associated decrease in spontaneous behavioral arousal.
# SOD [5] = test: SOD level in brain of old C57 Black mice, 30 days daily oral gavage; format: in vivo; conditions: 18-month old mice
# Protocol: As a further examination of the dose-response effect on upregulating SOD in “old” adult C57 Black mice, young and old animals were divided into the following treatment groups (n=3): • Animals 1-3: Young, 4-month old mice, untreated • Animals 4-6: Old, 18-month old mice, untreated • Animals 7-9: Old, 18-month old mice treated daily by oral gavage 0.33 mg/kg of PEP-1 • Animals 10-1 2: Old, 18-month old mice treated daily by oral gavage 3.3 mg/kg of PEP-1
# At the end of 30 days, all animals were sacrificed and their brains were harvested. SOD level was analyzed by Western immunoblot. A SOD standard (“M”) was also run alongside the samples. The SOD levels were quantitated by densitometry measurements of the immunoblot.
# SOD-1 = test: PEP-2-dependent upregulation of SOD-1 in rat cortical cell cultures (Western immunoblot, densitometry); format: cell-based; conditions: 5 hours, rat brain cortical cells, vs vehicle control
# Protocol: Primary cortical cultures were obtained by growing newborn rat brain cortical cells in Delbecco's modified Eagle medium supplemented with 100 units/ml of penicillin G, 100 μg/ml of streptomycin, and 10% fetal calf serum. The cells were isolated from the E-21 cortex of rat brain, plated at a density of 1×10^5 per ml and grown to confluence within four to five days in an atmosphere containing air and 5% CO2 at 37° C. as described in Cornell-Bell et al., Science, 247: 470473 (1990) and Cell Calcium, 12: 185-204 (1991). Cultures were grown in 20 ml flasks as a monolayer and then exposed to various concentrations of peptide for studies of the effects of PEP-2 on upregulation of the gene for SOD. Cultures of the rat brain cortical cells were incubated with 1 ng/ml, 10 ng/ml, and 100 ng/ml of peptide compound PEP-2 for durations of 5 hours. Control cultures were treated in the same manner, but were not incubated with PEP-2.
# Cytoplasmic proteins were isolated according to published methods (Adams et al., J. Leukoc. Biol. 62: 865-873 (1997)). The cell cultures were washed once in phosphate buffer saline (PBS) containing 20 mM EDTA and then suspended in 250 μl of freshly prepared lysis buffer (20 mM Hepes, pH 7.9, 10 mM KCl, 300 mM NaCl, 1 mM MgCl2, 0.1% Triton X-100 nonionic detergent, 20% glycerol, 0.5 mM dithiothreitol (DTT), freshly supplemented with inhibitors as described in Adams et al., J. Biol. Chem., 77: 221-233 (2000)). The suspensions were then incubated for at least 10 minutes on ice to lyse cells and then centrifuged (14,000×g for 5 minutes at 4° C.) to pellet cell debris. The supernatant cytoplasmic fractions were removed and stored as aliquots at −80° C. for analysis. […]
# The cytoplasmic proteins were separated by SDS-PAGE using 5 μg/lane on the gels for analysis by Western immunoblots. […] SOD expression was detected in the Western blots using anti-SOD rabbit polyclonal antibody (Rockland, Inc., Gilbertville, Pa.). The Western blots were also analyzed by laser densitometry to quantify SOD protein upregulation. […]
substance,measurement,setting,value
[Ac] Asp Gly Glu Ala (Ac-DGEA) [PEP-1],animals that died during 70-day treatment period,"[1]; 0.025 mg/kg daily oral gavage, n=10 (Group 3)",2 animals
same,animals that died during 70-day treatment period,"[1]; 0.075 mg/kg daily oral gavage, n=10 (Group 4)",2 animals
same,survival over 70-day treatment period,"[1]; 0.25 mg/kg daily oral gavage, n=10 (Group 5)",all of the old mice treated with PEP-1 survived
same,survival over 70-day treatment period,"[1]; 0.75 mg/kg daily oral gavage, n=10 (Group 6)",all of the old mice treated with PEP-1 survived
same,survival over 70-day treatment period,"[1]; 2.5 mg/kg daily oral gavage, n=10 (Group 7)",all of the old mice treated with PEP-1 survived
same,SOD (Fold increase),SOD [2]; rat brain,1.0 fold
same,SOD (Fold increase),SOD [2]; rat heart,1.0 fold
same,CAT (Fold increase),CAT; rat brain,1.0 fold
same,CAT (Fold increase),CAT; rat heart,1.1 fold
same,SOD level elevation compared to control group,SOD [3]; 0.25 mg/kg oral gavage daily,over 4.5 fold
same,SOD level elevation compared to control group,SOD [3]; 0.25 mg/kg oral gavage every other day,over 4.5 fold
same,increase in SOD level compared to control group,SOD [3]; 0.25 mg/kg oral gavage twice per week,2.3 fold
same,horizontal locomotor activity (horizontal counts/min),"[4]; 0.025 mg/kg daily oral, six weeks (Group 3)",failed to differ significantly from the old controls
same,horizontal locomotor activity (horizontal counts/min),"[4]; 0.075 mg/kg daily oral, six weeks (Group 4)",higher than that of the old controls
same,horizontal locomotor activity (horizontal counts/min),"[4]; 0.25 mg/kg daily oral, six weeks (Group 5)",higher than that of the old controls
same,horizontal locomotor activity (horizontal counts/min),"[4]; 0.75 mg/kg daily oral, six weeks (Group 6)",higher than that of the old controls
same,increase in SOD level compared to untreated old control,SOD [5]; 0.33 mg/kg oral daily,2.9 fold
same,level of SOD expression in brain tissue compared to untreated old control,SOD [5]; 3.3 mg/kg oral daily,4.8 fold
same,SOD-related breakdown fragments,"SOD [5]; brain, 0.33 or 3.3 mg/kg oral daily",no change
[Ac] Asp Gly Glu Ala Leu (Ac-DGEAL) [PEP-2],Fold-Increase in SOD Expression,SOD-1; 1 ng/ml,2 fold and 1.8 fold
same,Fold-Increase in SOD Expression,SOD-1; 10 ng/ml,1.9 fold
same,Fold-Increase in SOD Expression,SOD-1; 100 ng/ml,2.1 fold
[Ac] Asp Gly Leu Glu Ala (Ac-DGLEA) [PEP-3],SOD (Fold increase),SOD [2]; rat brain,1.0 fold
same,SOD (Fold increase),SOD [2]; rat heart,1.2 fold
same,CAT (Fold increase),CAT; rat brain,1.0 fold
same,CAT (Fold increase),CAT; rat heart,1.0 fold
